Where “and” joins values, the source holds several entries; their conditions need not be identical. Equal entries are not always repeated.
Experiments:
anti-LPA antibody, 504B3 = experiment: free solution assay (FSA) measured in a compensated interferometric reader (CIR), equilibrium binding of lipids to antibody; design: species or system murine; settings: 5 μg/ml 504B3, 0–50 nM ligand; for Kd: read-out: KD from FSA ± SD (95% CI); for Bmax (95% CI): one-site specific binding fit of the ΔRI signal
Experimental: The FSA configuration required refractive index (RI)-matched sample and reference solutions (Fig. 2). The binding affinity determinations were done in an end-point assay format. A ligand dilution series (100, 20, 4, 0.8, 0.16, 0.032, and 0 nM) was prepared in 0.01% BSA / 0.002% EtOH/Phosphate buffered saline (PBS; ThermoFisher Scientific, Waltham, MA, USA) from an intermediate stock of 200 nM LPs in 0.01% BSA / 0.002% EtOH/PBS. Lipids were prepared in fatty acid-free BSA solutions to approximate the biological conditions of LPs. Then, each LP dilution was combined with PBS-only to create the reference solution, or 10 μg/ml of the 504B3 antibody in PBS to create the corresponding binding sample solution (Fig. 2). Sample and reference solutions were kept at RT in a shaker for approximately 1-h to reach equilibrium and then analyzed using the CIR. The final concentrations were 5 μg/ml of antibody and 0–50 nM of ligand in a final buffer composition of 0.005% BSA / 0.001% EtOH/PBS. The details of the interferometer instrumentation have been described elsewhere. Briefly, it consists of a diode laser, two mirrors, one glass capillary, and a CCD camera. Droplet trains of sample-reference pairs were maintained at a constant flow rate in the capillary using a droplet generator (Mitos Dropix; Dolomite Microfluidics, (Royston, North Hertfordshire, UK)) and a syringe pump (Harvard Apparatus, Holliston, MA, USA). Together, the interferometer, a syringe pump (at a flow rate of 10 μL/min), and a droplet generator comprise the CIR. The RI change between the binding sample and reference was measured as a positional shift in backscattered interference fringes produced from the interaction between an expanded beam profile of the laser and a capillary filled with sample-reference solutions [24]. The shift of the backscattered fringe patterns, which is equivalent to molecular binding, was quantified using fast Fourier transform of selected fringes captured in a CCD array. The assay was measured sequentially, as reference, then sample for each concentration, as described previously. The concentration dependent signal was plotted using a non-linear regression, one-site specific binding (Y=Bmax*X/(KD + X) + D; where D is the offset value) isotherm fit in GraphPad Prism Version 8 to determine the equilibrium dissociation constants (KDs). […] The sample and reference solutions were prepared by mixing a ligand dilution series (0–100 nM) with an equivalent volume of the 504B3 solution (sample; 10 μg/ml dissolved in PBS, pH 7.4) or PBS only (reference) (Fig. 2).

LPA1 = target: LPA1; design: method as in PMID 30463988, PMID 32513900; settings: CIR; cited from earlier work
[1] = 0.005% BSA / 0.001% EtOH/PBS, about 1 h at RT, one-site specific binding fit

Row | KD from FSA ± SD (95% CI) (anti-LPA antibody, 504B3; [1]) | Kd (anti-LPA antibody, 504B3; [1]) | Bmax (95% CI) (anti-LPA antibody, 504B3) | specific binding signal (ΔRI) with 504B3 (anti-LPA antibody, 504B3) | specific binding signal (ΔRI) with 504B3 (anti-LPA antibody, 504B3; listed as S1P) | SMILES | native equilibrium binding (KD) to LPA1 (LPA1)
1 | weaker affinity | > 30 nM | 0.39 (undetermined^a) |  |  | CCCCCCCCCCCCCCCC(=O)OC[C@@H](O)COP(=O)(O)O [16:0 LPA, 1-palmitoyl-LPA (16:0)] | comparable binding
2 |  | 3.7 ± 2.8 nM | 0.17 (0.14 to 0.25) |  |  | CCCCCCCC/C=C\CCCCCCCC(=O)OC[C@@H](O)COP(=O)(O)O [18:1 LPA, 1-oleoyl-LPA (18:1)] | comparable binding
3 |  |  |  | No specific binding signal | no signal | CCCCCCCCCCCCC/C=C/[C@@H](O)[C@@H](N)COP(=O)(O)O [18:1 S1P, sphingosine 1-phosphate (d18:1)] | 

Row | SMILES | KD from FSA ± SD (95% CI) (anti-LPA antibody, 504B3; [1]) | Kd (anti-LPA antibody, 504B3; [1]) | Bmax (95% CI) (anti-LPA antibody, 504B3) | specific binding signal (ΔRI) with 504B3 (anti-LPA antibody, 504B3) | specific binding signal (ΔRI) with 504B3 (anti-LPA antibody, 504B3; listed as S1P) | native equilibrium binding (KD) to LPA1 (LPA1)
4 | CCCCCCCC/C=C\CCCCCCCC(=O)OC[C@@H](O)COP(=O)([O-])OCC[N+](C)(C)C [18:1 LPC, 1-oleoyl-lysophosphatidylcholine] |  | ~8.5 nM and 8.5 nM | 0.14 (0.12 to 0.16) |  |  | 

Reference: publication PMC8048308, “Lysophosphatidic acid (LPA)-antibody (504B3) engagement detected by interferometry identifies off-target binding” (Lipids in Health and Disease, 2021)
